Measured values published in US10251395B2, “Substituted furano-/thienocycloalkylamino-2-pyrimidine derivatives and use thereof for controlling undesired plant growth” (Bayer CropScience Aktiengesellschaft, priority 2015, dated 2019).

Experiments:
Assay type in all cases: in vivo
Alopecurus myosuroides = test: Pre-emergence herbicidal effect; details: Dosage 320 g/ha, scored visually after 3 weeks
Outline: (§1)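 Seeds sown in sandy loam and covered with soil; WP or EC formulations sprayed onto the soil surface as aqueous suspension/emulsion at 600 to 800 L/ha water with 0.2% wetting agent. Greenhouse-grown; damage scored visually after 3 weeks against untreated controls (100% = plants dead, 0% = like control).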

Lolium multiflorum = test: Pre-emergence herbicidal effect; details: Dosage 320 g/ha, scored visually after 3 weeks
Outline: as §1

Veronica persica [1] = test: Pre-emergence herbicidal effect; details: scored visually after 3 weeks
Outline: as §1

Abutilon theophrasti [2] = test: Pre-emergence herbicidal effect; details: scored visually after 3 weeks
Outline: as §1

Setaria viridis [3] = test: Pre-emergence herbicidal effect; details: scored visually after 3 weeks
Outline: as §1

Echinochloa crus-galli [4] = test: Pre-emergence herbicidal effect; details: scored visually after 3 weeks
Outline: as §1

Polygonum convolvulus = test: Pre-emergence herbicidal effect; details: scored visually after 3 weeks
Outline: as §1

Viola tricolor [5] = test: Pre-emergence herbicidal effect; details: scored visually after 3 weeks
Outline: as §1

Cyperus esculentus = test: Pre-emergence herbicidal effect; details: Dosage 320 g/ha, scored visually after 3 weeks
Outline: as §1

Matricaria inodora = test: Pre-emergence herbicidal effect; details: scored visually after 3 weeks
Outline: as §1

Amaranthus retroflexus [6] = test: Pre-emergence herbicidal effect; details: scored visually after 3 weeks
Outline: as §1

Stellaria media = test: Pre-emergence herbicidal effect; details: scored visually after 3 weeks
Outline: as §1

Veronica persica [7] = test: Post-emergence herbicidal effect; details: assessed visually after about 3 weeks vs untreated controls
Outline: (§2)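 Percent herbicidal action was judged by eye roughly 3 weeks post-application, 0% matching control plants and 100% meaning plant death. Seedlings, greenhouse-grown in sandy loam, received the spray at one leaf.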

Abutilon theophrasti [8] = test: Post-emergence herbicidal effect; details: assessed visually after about 3 weeks vs untreated controls
Outline: as §2

Setaria viridis [9] = test: Post-emergence herbicidal effect; details: assessed visually after about 3 weeks vs untreated controls
Outline: as §2

Echinochloa crus-galli [10] = test: Post-emergence herbicidal effect; details: assessed visually after about 3 weeks vs untreated controls
Outline: as §2

Ipomoea purpurea = test: Post-emergence herbicidal effect; details: assessed visually after about 3 weeks vs untreated controls
Outline: as §2

Viola tricolor [11] = test: Post-emergence herbicidal effect; details: assessed visually after about 3 weeks vs untreated controls
Outline: as §2

Amaranthus retroflexus [12] = test: Post-emergence herbicidal effect; details: assessed visually after about 3 weeks vs untreated controls
Outline: as §2

## Cc1cc2c(s1)CCCC2Nc1ncc(S(C)(=O)=O)c(N)n1 (racemic) [compound 59]
Alopecurus myosuroides
  ALOMY pre-emergence efficacy (herbicidal activity): 80%
Lolium multiflorum
  LOLMU pre-emergence efficacy (herbicidal activity): 90%
Veronica persica [1]; Dosage 80 g/ha
  VERPE pre-emergence efficacy (herbicidal activity): 100%
Veronica persica [1]; Dosage 320 g/ha
  VERPE pre-emergence efficacy (herbicidal activity): 100%
Abutilon theophrasti [2]; Dosage 80 g/ha
  ABUTH pre-emergence efficacy (herbicidal activity): 80%
Abutilon theophrasti [2]; Dosage 320 g/ha
  ABUTH pre-emergence efficacy (herbicidal activity): 100%
Setaria viridis [3]; Dosage 80 g/ha
  SETVI pre-emergence efficacy (herbicidal activity): 80%
Setaria viridis [3]; Dosage 320 g/ha
  SETVI pre-emergence efficacy (herbicidal activity): 100%
Echinochloa crus-galli [4]; Dosage 80 g/ha
  ECHCG pre-emergence efficacy (herbicidal activity): 100%
Echinochloa crus-galli [4]; Dosage 320 g/ha
  ECHCG pre-emergence efficacy (herbicidal activity): 100%
Polygonum convolvulus; Dosage 80 g/ha
  POLCO pre-emergence efficacy (herbicidal activity): 80%
Polygonum convolvulus; Dosage 320 g/ha
  POLCO pre-emergence efficacy (herbicidal activity): 100%
Viola tricolor [5]; Dosage 80 g/ha
  VIOTR pre-emergence efficacy (herbicidal activity): 100%
Viola tricolor [5]; Dosage 320 g/ha
  VIOTR pre-emergence efficacy (herbicidal activity): 100%
Cyperus esculentus
  CYPES pre-emergence efficacy (herbicidal activity): 80%
Matricaria inodora; Dosage 80 g/ha
  MATIN pre-emergence efficacy (herbicidal activity): 100%
Matricaria inodora; Dosage 320 g/ha
  MATIN pre-emergence efficacy (herbicidal activity): 100%
Amaranthus retroflexus [6]; Dosage 80 g/ha
  AMARE pre-emergence efficacy (herbicidal activity): 100%
Amaranthus retroflexus [6]; Dosage 320 g/ha
  AMARE pre-emergence efficacy (herbicidal activity): 100%
Stellaria media; Dosage 80 g/ha
  STEME pre-emergence efficacy (herbicidal activity): 100%
Stellaria media; Dosage 320 g/ha
  STEME pre-emergence efficacy (herbicidal activity): 100%
Veronica persica [7]; 80 g/ha
  post-emergence efficacy VERPE: 90%
Veronica persica [7]; 320 g/ha
  post-emergence efficacy VERPE: 100%
Abutilon theophrasti [8]; 80 g/ha
  post-emergence efficacy ABUTH: 20%
Abutilon theophrasti [8]; 320 g/ha
  post-emergence efficacy ABUTH: 20%
Setaria viridis [9]; 80 g/ha
  post-emergence efficacy SETVI: 90%
Setaria viridis [9]; 320 g/ha
  post-emergence efficacy SETVI: 90%
Echinochloa crus-galli [10]; 80 g/ha
  post-emergence efficacy ECHCG: 20%
Echinochloa crus-galli [10]; 320 g/ha
  post-emergence efficacy ECHCG: 100%
Ipomoea purpurea; 80 g/ha
  post-emergence efficacy PHBPU: 80%
Ipomoea purpurea; 320 g/ha
  post-emergence efficacy PHBPU: 80%
Viola tricolor [11]; 80 g/ha
  post-emergence efficacy VIOTR: 80%
Viola tricolor [11]; 320 g/ha
  post-emergence efficacy VIOTR: 80%
Amaranthus retroflexus [12]; 80 g/ha
  post-emergence efficacy AMARE: 60%
Amaranthus retroflexus [12]; 320 g/ha
  post-emergence efficacy AMARE: 90%
